Values quoted from earlier work, collected in US20250049677A1, “Oxa-Macrocyclic Musk as Fragrance Compounds” (Symrise AG, priority 2021, published 2025).

Columns and labels:
[1] = background statement on prior art
[2] = background statement on prior art; remark: listed apart in the source

Solubility in water [1]: only very slightly soluble in water
Biodegradability [2]: badly biodegradable
Compound: C[C@@H]1CCCCCCCCCCCCC(=O)C1 [Muscone, (R)-3-methylcyclopentadecanone]
